According to paper PMC9490236, “Accurate de novo design of membrane-traversing macrocycles” (Cell, 2022):
Where a SMILES comes first, the peptide text is derived from it. [ ]: non-standard residue; d: D form. NMeF = CN[C@@H](Cc1ccccc1)C(=O)O; dNMeF = CN[C@H](Cc1ccccc1)C(=O)O; NMeL = CN[C@@H](CC(C)C)C(=O)O; dNMeL = CN[C@H](CC(C)C)C(=O)O; dNMeV = CN[C@@H](C(=O)O)C(C)C; NMeV = CN[C@H](C(=O)O)C(C)C; NMeA = CN[C@@H](C)C(=O)O; dNMeA = CN[C@H](C)C(=O)O; Sar = CNCC(=O)O

Experiments:
[1] = PAMPA
in vitro = details: PAMPA, PAMPA_Papp_Avg

SMILES | PAMPA_R1 [1] | PAMPA_R3 [1] | Papp (in vitro) [×10⁻⁶ cm/s]
CC[C@@H](C)[C@H]1NC(=O)[C@H](CC(C)C)N(C)C(=O)[C@H]2CCCN2C(=O)[C@H](CC(C)C)NC(=O)[C@@H](Cc2ccccc2)N(C)C(=O)[C@H](CC(C)C)N(C)C(=O)[C@@H](C(C)C)NC(=O)[C@H](C)NC(=O)[C@H]2CCCN2C(=O)[C@@H]2CCCN2C1=O (single isomer, unassigned) [Design D10.60.p1, *LEU *DPHE LEU DPRO *LEU DILE PRO DPRO ALA DVAL] | 6.58E-07 | 1.13E-06 | 0.65
CC(C)C[C@@H]1C(=O)N(C)[C@@H](CC(C)C)C(=O)N2CCC[C@@H]2C(=O)N[C@H](CC(C)C)C(=O)N[C@H](C)C(=O)N2CCC[C@@H]2C(=O)N2CCC[C@H]2C(=O)N[C@@H](C)C(=O)N[C@H](Cc2ccccc2)C(=O)N[C@H](CC(C)C)C(=O)N[C@@H](C(C)C)C(=O)N1C (single isomer, unassigned) [Design D11.9.p1, VAL *DLEU *LEU DPRO DLEU DALA DPRO PRO ALA DPHE DLEU] | 1.04E-06 | 2.42E-07 | 0.641
CC[C@@H](C)[C@H]1NC(=O)[C@@H](Cc2ccccc2)NC(=O)[C@@H]2CCCN2C(=O)[C@@H]([C@H](C)CC)NC(=O)[C@@H](Cc2ccccc2)NC(=O)[C@@H]2CCCN2C1=O [Design D6.1, DILE PRO DPHE DILE PRO DPHE] (cyclo(P[dF][dI]P[dF][dI])) | 3.78e-06 cm/s | 3.92e-06 cm/s | 3.34
CC[C@@H](C)[C@H]1NC(=O)[C@@H](Cc2ccccc2)N(C)C(=O)[C@@H]2CCCN2C(=O)[C@@H]([C@H](C)CC)NC(=O)[C@@H](Cc2ccccc2)N(C)C(=O)[C@@H]2CCCN2C1=O [Design D6.2, DILE PRO *DPHE DILE PRO *DPHE] (cyclo(P[dNMeF][dI]P[dNMeF][dI])) | 1.72e-05 cm/s | 1.15e-05 cm/s | 12.1
CC(C)C[C@H]1NC(=O)[C@@H]2CCCN2C(=O)[C@@H]2CCCN2C(=O)[C@@H](C)NC(=O)[C@@H](Cc2ccccc2)NC(=O)[C@H]2CCCN2C1=O [Design D6.3, DPRO DPHE DALA PRO PRO DLEU] (cyclo(PP[dL][dP][dF][dA])) | 5.23e-06 cm/s | 7.03e-07 cm/s | 1.99
CC(C)C[C@H]1NC(=O)[C@@H]2CCCN2C(=O)[C@@H]2CCCN2C(=O)[C@@H](C)NC(=O)[C@@H](Cc2ccccc2)N(C)C(=O)[C@H]2CCCN2C1=O [Design D6.4, DPRO *DPHE DALA PRO PRO DLEU] (cyclo(PP[dL][dP][dNMeF][dA])) | 1.85e-05 cm/s | 1.58e-05 cm/s | 13.9
CC(C)[C@@H]1NC(=O)[C@@H]2CCCN2C(=O)[C@@H]2CCCN2C(=O)[C@@H](Cc2ccccc2)NC(=O)[C@@H]2CCCN2C(=O)[C@@H](Cc2ccccc2)NC1=O [Design D6.5, PRO PRO VAL DPHE PRO DPHE] (cyclo(PPV[dF]P[dF])) | 3.17e-06 cm/s | 3.12e-06 cm/s | 2.41
CC(C)[C@H]1C(=O)N[C@H](Cc2ccccc2)C(=O)N2CCC[C@H]2C(=O)N[C@H](Cc2ccccc2)C(=O)N2CCC[C@H]2C(=O)N2CCC[C@H]2C(=O)N1C [Design D6.6, PRO PRO *VAL DPHE PRO DPHE] (cyclo([NMeV][dF]P[dF]PP)) | 2.64e-06 cm/s | 6.73e-06 cm/s | 3.64
CC(C)[C@H]1NC(=O)[C@@H]2CCCN2C(=O)[C@@H](C)NC(=O)[C@@H](Cc2ccccc2)NC(=O)[C@@H]2CCCN2C(=O)[C@H](Cc2ccccc2)NC1=O [Design D6.7, DPHE DALA PRO DVAL PHE PRO] (cyclo(FP[dF][dA]P[dV])) | 6.27e-07 cm/s | 3.67e-07 cm/s | 0.424
CC(C)C[C@H]1C(=O)N2CCC[C@@H]2C(=O)N[C@@H](Cc2ccccc2)C(=O)N2CCC[C@H]2C(=O)N(C)[C@H](C(C)C)C(=O)N[C@H](Cc2ccccc2)C(=O)N1C [Design D6.10, *DVAL DPHE *LEU DPRO PHE PRO] (cyclo(FP[dNMeV][dF][NMeL][dP])) | 1.23e-05 cm/s | 1.13e-05 cm/s | 11.6
CC[C@H](C)[C@@H]1NC(=O)[C@H]2CCCN2C(=O)[C@@H]2CCCN2C(=O)[C@H](CC(C)C)NC(=O)[C@@H](C(C)C)NC(=O)[C@@H](CC(C)C)N(C)C(=O)[C@@H]2CCCN2C1=O [Design D7.1, PRO *DLEU DVAL LEU PRO DPRO ILE] (cyclo(IP[dNMeL][dV]LP[dP])) | 2.76e-06 cm/s | 3.53e-06 cm/s | 2.93
CC[C@H](C)[C@@H]1NC(=O)[C@H](CC(C)C)N(C)C(=O)[C@H]2CCCN2C(=O)[C@@H](CC(C)C)NC(=O)[C@H](CC(C)C)NC(=O)[C@@H](CC(C)C)N(C)C(=O)[C@@H]2CCCN2C1=O [Design D7.2, DLEU DPRO *LEU ILE PRO *DLEU LEU] (cyclo(IP[dNMeL]L[dL][dP][NMeL])) | 1.48e-05 cm/s | – | 11.6
CC(C)C[C@@H]1NC(=O)[C@@H](CC(C)C)NC(=O)[C@H]2CCCN2C(=O)[C@@H]2CCCN2C(=O)[C@@H](CC(C)C)NC(=O)[C@@H](CC(C)C)N(C)C(=O)[C@@H]2CCCN2C1=O [Design D7.5, LEU PRO *DLEU DLEU PRO DPRO DLEU] (cyclo(LP[dNMeL][dL]P[dP][dL])) | 6.72e-06 cm/s | – | 6.64
CC(C)C[C@@H]1NC(=O)[C@@H]2CCCN2C(=O)[C@H]2CCCN2C(=O)[C@H](CC(C)C)NC(=O)[C@H](C)N(C)C(=O)[C@H]2CCCN2C(=O)[C@@H](CC(C)C)NC1=O [Design D7.6, DLEU DPRO *ALA LEU DPRO PRO LEU] (cyclo(L[dL][dP][NMeA]L[dP]P)) | 2.16e-06 cm/s | 6.12e-06 cm/s | 3.62
CC[C@H](C)[C@@H]1NC(=O)[C@H](Cc2ccccc2)N(C)C(=O)[C@H]2CCCN2C(=O)[C@H]([C@@H](C)CC)NC(=O)[C@H](C(C)C)NC(=O)[C@@H](C)NC(=O)[C@H]2CCCN2C1=O [Design D7.9, VAL ILE DPRO *PHE ILE DPRO DALA] (cyclo(I[dP][NMeF]I[dP][dA]V)) | 6.71e-06 cm/s | 6.53e-06 cm/s | 7.09
CC(C)C[C@@H]1C(=O)N[C@H](CC(C)C)C(=O)N2CCC[C@@H]2C(=O)N2CCC[C@H]2C(=O)N(C)[C@H](CC(C)C)C(=O)N[C@H](CC(C)C)C(=O)N2CCC[C@@H]2C(=O)N2CCC[C@H]2C(=O)N1C [Design D8.4, DPRO PRO *DLEU DLEU DPRO PRO *DLEU DLEU] (cyclo([dNMeL][dL][dP]P[dNMeL][dL][dP]P)) | 1.49E-07 | 1.12E-07 | 0.136
CC(C)C[C@@H]1NC(=O)[C@@H](CC(C)C)N(C)C(=O)[C@@H](CC(C)C)N(C)C(=O)[C@@H](CC(C)C)N(C)C(=O)[C@H](CC(C)C)NC(=O)[C@@H]2CCCN2C(=O)[C@H]2CCCN2C(=O)[C@H](Cc2ccccc2)NC1=O [Design D8.7, PHE DPRO PRO LEU *DLEU *DLEU *DLEU LEU] (cyclo(L[dNMeL][dNMeL][dNMeL]LF[dP]P)) | 1.94E-06 | 8.74E-07 | 1.27
CC[C@H](C)[C@@H]1NC(=O)[C@@H]2CCCN2C(=O)[C@H]2CCCN2C(=O)[C@@H](CC(C)C)NC(=O)[C@@H](CC(C)C)N(C)C(=O)[C@@H]2CCCN2C(=O)[C@H](Cc2ccccc2)N(C)C(=O)[C@@H](Cc2ccccc2)NC1=O [Design D8.14, PRO ILE DPHE*PHE PRO *DLEU DLEU DPRO] (cyclo(I[dF][NMeF]P[dNMeL][dL][dP]P)) | 1.14E-06 | 7.14E-07 | 0.971
CC[C@H](C)[C@@H]1NC(=O)[C@@H]2CCCN2C(=O)CN(C)C(=O)[C@@H](CC(C)C)NC(=O)[C@@H](CC(C)C)N(C)C(=O)[C@@H]2CCCN2C(=O)[C@H](Cc2ccccc2)N(C)C(=O)[C@@H](Cc2ccccc2)NC1=O [Design D8.15, PRO ILE DPHE*PHE PRO *DLEU DLEU *GLY] (cyclo(I[dF][NMeF]P[dNMeL][dL][Sar]P)) | 8.94E-07 | 9.27E-07 | 0.768
CC[C@H](C)[C@@H]1NC(=O)[C@@H](C(C)C)NC(=O)[C@H](CC(C)C)N(C)C(=O)[C@H]2CCCN2C(=O)[C@H]2CCCN2C(=O)[C@H](C(C)C)NC(=O)[C@@H](CC(C)C)NC(=O)[C@H]2CCCN2C1=O [Design D8.16, DPRO DLEU VAL DPRO DPRO *LEU DVAL ILE] (cyclo(I[dP][dL]V[dP][dP][NMeL][dV])) | 2.86E-06 | 1.69E-06 | 2.16
CC[C@H](C)[C@@H]1NC(=O)[C@@H](C)N(C)C(=O)[C@H]2CCCN2C(=O)[C@H]2CCCN2C(=O)[C@H](Cc2ccccc2)NC(=O)[C@@H](CC(C)C)NC(=O)[C@@H](CC(C)C)N(C)C(=O)[C@@H]2CCCN2C1=O [Design D8.17, PRO *DLEU DLEU PHE DPRO DPRO *DALA ILE] (cyclo(F[dP][dP][dNMeA]IP[dNMeL][dL])) | 5.94E-07 | 8.83E-07 | 0.72
CC[C@@H](C)[C@H]1NC(=O)[C@@H]2CCCN2C(=O)[C@@H](CC(C)C)N(C)C(=O)[C@@H](C(C)C)NC(=O)[C@@H]2CCCN2C(=O)[C@@H](CC(C)C)N(C)C(=O)[C@H](C)N(C)C(=O)[C@@H](C)NC1=O [Design D8.18, DILE DALA *ALA *DLEU PRO DVAL *DLEU PRO] (cyclo([NMeA][dNMeL]P[dV][dNMeL]P[dI][dA])) | 1.31E-06 | 9.35E-07 | 1.04
CC(C)C[C@H]1NC(=O)[C@H]2CCCN2C(=O)[C@H](CC(C)C)N(C)C(=O)[C@@H](C)N(C)C(=O)[C@@H](Cc2ccccc2)NC(=O)[C@@H](C(C)C)NC(=O)[C@H]2CCCN2C(=O)[C@@H](CC(C)C)NC1=O [Design D8.19, DPHE *DALA *LEU DPRO DLEU DLEU DPRO DVAL] (cyclo([NMeL][dP][dL][dL][dP][dV][dF][dNMeA])) | 3.45E-06 | 2.33E-06 | 2.88
